# Measured values: patent US6413970B1, “Pharmaceutical composition for treating viral diseases” (UCB S.A., priority 1996, dated 2002)
# Structures can show the parent of a compound that is named as a salt.
# Columns and labels:
# Type in all cases: cell-based
# [1] = system: respiratory syncytial virus (RSV); assay: RSV-specific mRNA (SH gene) expression in RSV-treated human PMN, RT-PCR; conditions: human PMN 1×10^6/ml, RSV 1 m.o.i., cetirizine 100-, 0.1-, 0.01 μg/10^6 PMN, 2 hours and 16 hours at 37° C., FIG. 2
# Procedure: (§1) Human granulocytes were isolated from 200 ml of heparinized blood (15 U ml) from healthy donors separated on a Ficoll-metrizoate gradient followed by dextran sedimentation and washed twice at 300 g. This method led to more than 95% pure PMN. The cells were diluted to a final density of 1×10^6 PMN.
# (§2) Virus preparation was performed as described by R. ARNOLD et al. in Immunology 82, 126-133 (1994). For crude preparation, respiratory syncytial virus (RSV), Long Stain (ATCC), was grown and titrated in HEP-2 cells. The RSV titre was determined in a plaque-forming unit (PFU) assay. The stock titre of the virus pool used in the study was 5×10^6 PFU/ml. The stock solution was stored at −70° C. until use. Interleukin-8 (IL-8) levels were under the detection limit in the stock solution, as analysed by enzyme-linked immuno sorbent assay (ELISA). The absence of mycoplasma infection was verified by microplasma-specific PCR. […]
# The analysis of RSV-specific genomic RNA was performed by coupled reverse transcription and polymerase chain reaction PCR detection of RSV-genomic-RNA encoding for the small hydrophobic protein (SH) of RSV as described previously by R. ARNOLD et al. in Immunology 82, 126-133 (1994). […] Expression of genomic RSVSH RNA was analysed after reverse transcription with sense primers and PCR amplification of the cDNA transcripts. […]
# [2] = system: RSV-induced IL-8 release from human PMN; assay: RSV-induced IL-8 release from human PMN, ELISA
# Procedure: as §1, §2
# (§3) PMN were suspended in RPMI medium at a concentration of 1×10^6/ml. […] Culture supernatants were collected and analyzed for their IL-8 content. IL-8 release was determined using a sandwich ELISA according to the method indicated hereinbefore. […] After addition of p-nitrophenylphosphate (15 mg/ml) for quantification, an ELISA reader and for calculation Mikrotek software (SLT Labinstruments, Crailsheim, Germany) were used. […]
# [3] = system: ongoing IL-8 release induced by RSV, human PMN; assay: Ongoing IL-8 release induced by RSV in human PMN, delayed cetirizine addition, ELISA
# Procedure: as §1, §2, §3
structure (smiles),measurement,setting,value
"O=C(O)COCCN1CCN(C(c2ccccc2)c2ccc(Cl)cc2)CC1 (racemic) [cetirizine dihydrochloride, 2-[2-[4-[(4-chlorophenyl)phenylmethyl]-1-piperazinyl]ethoxy]-acetic acid]",RSV-specific mRNA expression of the small hydrophobic (SH) gene,[1],inhibits RSV-specific mRNA expression
same,RSV-induced IL-8 release at the stated concentration range,"[2]; cetirizine at concentrations <0.01 μg/ml but >100 μg/ml (so in the source), similar after incubation up to 24 hours and RSV up to 5 m.o.i.",significant reduction in RSV-induced IL-8 release
same,RSV-induced IL-8 release,"[2]; human PMN 1×10^6/ml, total incubation 2 hours at 37° C., cetirizine 100-0.01 μg/ml, dose-dependent, 8 independent experiments, FIG. 3",down-regulated the RSV-induced IL-8 release
same,"Down regulation of RSV-induced IL-8 release, concentration range of strongest effect","[3]; cetirizine concentrations >0.01 μg/ml and <10 μg/ml, strongest when added at the onset of RSV treatment",most pronounced
same,ongoing IL-8 release by RSV,"[3]; human PMN 1×10^6/ml, RSV 1 m.o.i., cetirizine 100 μg, 10 μg, 0.01 μg added immediately, 30, 60 or 90 minutes after onset of RSV treatment, total 2 hours at 37° C., FIG. 4A-D",down regulates an ongoing IL-8 release by RSV
